According to patent publication US20100267561A1, “HERBICIDAL PYRIDAZINONE DERIVATIVES” (priority 2007, published 2010):

Legend:
Assay in all cases: Test E pre-/postemergence plant response
Type in all cases: in vivo
Conditions in all cases: Postemergence, scale 0 to 100
[1] = system: Italian ryegrass (Lolium multiflorum)
Outline: (§1)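 Scores are visual estimates of control on a 0 to 100 scale, made against untreated plants 14 to 21 days after treatment in the greenhouse. Application was preemergence to sown seeds or postemergence to 2–18 cm plants (1- to 4-leaf stage), using a surfactant-containing non-phytotoxic solvent formulation.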

[2] = system: annual bluegrass (Poa annua)
Outline: as §1

[3] = system: barnyardgrass (Echinochloa crus-galli)
Outline: as §1

[4] = system: black mustard (Brassica nigra)
Outline: as §1

[5] = system: broadleaf signalgrass (Brachiaria platyphylla)
Outline: as §1

[6] = system: common groundsel (Senecio vulgaris)
Outline: as §1

[7] = system: common mallow (Malva sylvestris)
Outline: as §1

[8] = system: common purslane (Portulaca oleracea)
Outline: as §1

[9] = system: dallisgrass (Paspalum dilatatum)
Outline: as §1

[10] = system: green foxtail (Setaria viridis)
Outline: as §1

[11] = system: itchgrass (Rottboellia cochinchinensis)
Outline: as §1

[12] = system: johnsongrass (Sorghum halepense)
Outline: as §1

[13] = system: large crabgrass (Digitaria sanguinalis)
Outline: as §1

[14] = system: naked crabgrass (Digitaria nuda)
Outline: as §1

[15] = system: pitted morningglory (Ipomoea lacunosa)
Outline: as §1

[16] = system: purple nutsedge (Cyperus rotundus)
Outline: as §1

[17] = system: surinam grass (Brachiaria decumbens)
Outline: as §1

Cc1cc(-c2ccc(Cl)cc2)nn1-c1c(OC(=O)Oc2ccccc2)cnn(C)c1=O [Compound 54]
Plant response rating, Ryegrass, Italian ([1]; 8 g ai/ha): 80
Plant response rating, Ryegrass, Italian ([1]; 16 g ai/ha): 80
Plant response rating, Ryegrass, Italian ([1]; 31 g ai/ha): 100
Plant response rating, Ryegrass, Italian ([1]; 62 g ai/ha): 100
Plant response rating, Bluegrass ([2]; 8 g ai/ha): 0
Plant response rating, Bluegrass ([2]; 16 g ai/ha): 0
Plant response rating, Bluegrass ([2]; 31 g ai/ha): 0
Plant response rating, Bluegrass ([2]; 62 g ai/ha): 0
Plant response rating, Barnyardgrass ([3]; 8 g ai/ha): 95
Plant response rating, Barnyardgrass ([3]; 16 g ai/ha): 98
Plant response rating, Barnyardgrass ([3]; 31 g ai/ha): 100
Plant response rating, Barnyardgrass ([3]; 62 g ai/ha): 100
Plant response rating, Mustard, Black ([4]; 8 g ai/ha): 0
Plant response rating, Mustard, Black ([4]; 16 g ai/ha): 0
Plant response rating, Mustard, Black ([4]; 31 g ai/ha): 0
Plant response rating, Mustard, Black ([4]; 62 g ai/ha): 0
Plant response rating, Signalgrass ([5]; 8 g ai/ha): 75
Plant response rating, Signalgrass ([5]; 16 g ai/ha): 90
Plant response rating, Signalgrass ([5]; 31 g ai/ha): 98
Plant response rating, Signalgrass ([5]; 62 g ai/ha): 100
Plant response rating, Groundsel ([6]; 8 g ai/ha): 0
Plant response rating, Groundsel ([6]; 16 g ai/ha): 0
Plant response rating, Groundsel ([6]; 31 g ai/ha): 0
Plant response rating, Mallow ([7]; 8 g ai/ha): 0
Plant response rating, Mallow ([7]; 16 g ai/ha): 0
Plant response rating, Mallow ([7]; 31 g ai/ha): 0
Plant response rating, Mallow ([7]; 62 g ai/ha): 0
Plant response rating, Purslane ([8]; 8 g ai/ha): 0
Plant response rating, Purslane ([8]; 16 g ai/ha): 0
Plant response rating, Purslane ([8]; 31 g ai/ha): 0
Plant response rating, Purslane ([8]; 62 g ai/ha): 0
Plant response rating, Dallisgrass ([9]; 8 g ai/ha): 20
Plant response rating, Dallisgrass ([9]; 16 g ai/ha): 30
Plant response rating, Dallisgrass ([9]; 31 g ai/ha): 40
Plant response rating, Dallisgrass ([9]; 62 g ai/ha): 80
Plant response rating, Foxtail, Green ([10]; 8 g ai/ha): 40
Plant response rating, Foxtail, Green ([10]; 16 g ai/ha): 70
Plant response rating, Foxtail, Green ([10]; 31 g ai/ha): 80
Plant response rating, Foxtail, Green ([10]; 62 g ai/ha): 98
Plant response rating, Itchgrass ([11]; 8 g ai/ha): 10
Plant response rating, Itchgrass ([11]; 16 g ai/ha): 90
Plant response rating, Itchgrass ([11]; 31 g ai/ha): 95
Plant response rating, Itchgrass ([11]; 62 g ai/ha): 100
Plant response rating, Johnsongrass ([12]; 8 g ai/ha): 20
Plant response rating, Johnsongrass ([12]; 16 g ai/ha): 60
Plant response rating, Johnsongrass ([12]; 31 g ai/ha): 100
Plant response rating, Johnsongrass ([12]; 62 g ai/ha): 100
Plant response rating, Crabgrass, Large ([13]; 8 g ai/ha): 25
Plant response rating, Crabgrass, Large ([13]; 16 g ai/ha): 80
Plant response rating, Crabgrass, Large ([13]; 31 g ai/ha): 95
Plant response rating, Crabgrass, Large ([13]; 62 g ai/ha): 100
Plant response rating, Crabgrass, Naked ([14]; 8 g ai/ha): 10
Plant response rating, Crabgrass, Naked ([14]; 16 g ai/ha): 85
Plant response rating, Crabgrass, Naked ([14]; 31 g ai/ha): 90
Plant response rating, Crabgrass, Naked ([14]; 62 g ai/ha): 90
Plant response rating, Morningglory ([15]; 8 g ai/ha): 0
Plant response rating, Morningglory ([15]; 16 g ai/ha): 0
Plant response rating, Morningglory ([15]; 31 g ai/ha): 0
Plant response rating, Morningglory ([15]; 62 g ai/ha): 0
Plant response rating, Nutsedge, Purple ([16]; 8 g ai/ha): 0
Plant response rating, Nutsedge, Purple ([16]; 16 g ai/ha): 0
Plant response rating, Nutsedge, Purple ([16]; 31 g ai/ha): 0
Plant response rating, Nutsedge, Purple ([16]; 62 g ai/ha): 0
Plant response rating, Surinam Grass ([17]; 8 g ai/ha): 90
Plant response rating, Surinam Grass ([17]; 16 g ai/ha): 90
Plant response rating, Surinam Grass ([17]; 31 g ai/ha): 100
Plant response rating, Surinam Grass ([17]; 62 g ai/ha): 100
